Measurements as given in paper PMC10485159, “Biochemical functions and structure of Caenorhabditis elegans ZK177.8 protein: Aicardi–Goutières syndrome SAMHD1 dNTPase ortholog” (The Journal of Biological Chemistry, 2023).

Legend:
ZK177.8^41–565 = biological target: T1, ZK177.8^41–565 (Caenorhabditis elegans, UniProt Q09374, H134R/D135N); test: X-ray crystallography, […] Å; assay type: binding; conditions: crystals with 1 mM GTP / 10 mM dATP, pH 5.5
T1 construct: gene sahd-1; tetramer in asymmetric unit
T1 sequence (Q09374 41-565 H134R/D135N): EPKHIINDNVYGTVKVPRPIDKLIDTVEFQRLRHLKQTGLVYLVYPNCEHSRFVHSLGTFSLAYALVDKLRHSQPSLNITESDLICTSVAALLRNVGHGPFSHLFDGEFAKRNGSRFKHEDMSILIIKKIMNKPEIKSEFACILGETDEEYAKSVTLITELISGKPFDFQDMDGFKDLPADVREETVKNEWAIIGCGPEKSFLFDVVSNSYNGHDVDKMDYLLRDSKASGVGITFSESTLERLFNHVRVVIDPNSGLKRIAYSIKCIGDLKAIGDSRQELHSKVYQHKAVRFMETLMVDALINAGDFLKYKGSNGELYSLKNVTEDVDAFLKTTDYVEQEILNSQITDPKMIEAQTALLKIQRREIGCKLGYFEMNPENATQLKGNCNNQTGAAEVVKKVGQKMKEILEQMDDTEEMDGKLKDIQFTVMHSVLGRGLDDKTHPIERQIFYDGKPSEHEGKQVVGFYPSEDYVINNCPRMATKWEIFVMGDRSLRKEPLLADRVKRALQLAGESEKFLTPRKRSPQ

hSAMHD1 = biological target: T2, hSAMHD1 (Homo sapiens, UniProt Q9Y3Z3); test: formaldehyde cross-linking, dGTP-induced tetramerization, SDS-PAGE; assay type: binding; conditions: 2 mM dGTP, 10 μM protein, 50 mM KCl, 5 mM MgCl2, pH 7.5; allosteric activator; dGTPase activity also compared in supplement Fig. S3
T2 construct: gene SAMHD1; purified human SAMHD1; construct not described; dGTP-induced tetramer
T2 sequence (Q9Y3Z3 whole entry): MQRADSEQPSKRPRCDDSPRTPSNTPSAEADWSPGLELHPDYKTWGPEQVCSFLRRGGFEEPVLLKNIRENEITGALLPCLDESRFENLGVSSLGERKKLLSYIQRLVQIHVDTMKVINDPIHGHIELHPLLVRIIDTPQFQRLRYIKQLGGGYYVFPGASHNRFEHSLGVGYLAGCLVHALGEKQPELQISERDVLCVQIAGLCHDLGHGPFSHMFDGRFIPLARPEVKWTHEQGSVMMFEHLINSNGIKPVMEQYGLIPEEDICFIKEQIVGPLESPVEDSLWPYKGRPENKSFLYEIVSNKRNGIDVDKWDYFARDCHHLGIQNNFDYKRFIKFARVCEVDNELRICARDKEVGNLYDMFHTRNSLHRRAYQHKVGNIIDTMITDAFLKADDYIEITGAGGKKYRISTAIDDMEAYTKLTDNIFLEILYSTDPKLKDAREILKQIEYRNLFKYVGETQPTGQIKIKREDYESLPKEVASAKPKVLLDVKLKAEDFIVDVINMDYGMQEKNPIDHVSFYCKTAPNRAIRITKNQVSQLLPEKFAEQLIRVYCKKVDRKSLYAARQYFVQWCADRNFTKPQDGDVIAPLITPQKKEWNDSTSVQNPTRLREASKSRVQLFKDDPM

SMILES: Nc1ncnc2c1ncn2[C@H]1C[C@H](O)[C@@H](COP(=O)(O)OP(=O)(O)OP(=O)(O)O)O1 [dATP]
- X-ray crystallography, 1.81 Å (ZK177.8^41–565; catalytic site, unhydrolysed, no catalytic metal, also bound at allosteric site A2): within each monomer, a dATP molecule occupies its catalytic site

SMILES: Nc1nc2c(ncn2[C@H]2C[C@H](O)[C@@H](COP(=O)(O)OP(=O)(O)OP(=O)(O)O)O2)c(=O)[nH]1 [dGTP]
- formaldehyde cross-linking, dGTP-induced tetramerization, SDS-PAGE (hSAMHD1): we detected the tetramer formation of hSAMHD1 protein only in the presence of dGTP

SMILES: Nc1nc2c(ncn2[C@@H]2O[C@H](COP(=O)(O)OP(=O)(O)OP(=O)(O)O)[C@@H](O)[C@H]2O)c(=O)[nH]1 [GTP]
- X-ray crystallography, 1.81 Å (ZK177.8^41–565; allosteric site A1 at tetramer interface): Two nucleotides, GTP and dATP, occupy the allosteric site located at the tetramer interface
